# Where a name gives a salt, the structure may show the parent alone.
# Tests used:
# [1] = tested on: SCC tumors (PDVC57 cells); assay: Intratumoral injection of exatecan in PDVC57 SCC tumors (Example 1, Experiments 1 and 2): tumor outcome; format: in vivo, C57BL/6J mice
# Protocol: (§1) Exatecan mesylate (“EXA”) (DX895If; MedChemExpress #HY-13631A) was dissolved in sterile dH20 (Invitrogen 10977-023) to prepare a 5 mg/mL or a 10 mg/mL stock solution. […] The concentration was confirmed by HPLC and further dilutions prepared as needed in sterile dH2O.
# Control groups received an equal volume of sterile dH2O.
# 16 days post-treatment, when the first vehicle control tumors reached 1 cm in one dimension, half (N=5) of each group was harvested for histology: tumors were measured, ranked by volume (V=(½)(W^2×L)), and every-other one harvested (#1, 3, 5, 7, and 9 were harvested and #2, 4, 6, 8, and 10 were not).
# [2] = tested on: PDVC57 cells (SCC tumors); assay: Single intratumoral injection of water-based exatecan mesylate formulation, followed to endpoint tumor volume 1 cm^3 (Example 4); format: in vivo, C57BL/6J mice
# Protocol: In a second experiment, 15 mice with tumors ranging in size from 50-100 mm^3, calculated as described above, were examined.
# PDVC57 cells were injected into 6-week-old female C57BL/6J mice. Treatment was administered by a single intratumoral injection seven days after tumor cell inoculation. Intratumoral injection was performed using BD insulin syringe (30-gauge×8 mm needle; #328468). The vehicle was Invitrogen UltraPure Distilled Water #10977-015.
# The experimental group received 10 mg/mL exatecan. The treatment volume was 0.02 mL. Ten of the mice were given a single injection of a water-based formulation containing exatecan mesylate while the other 5 mice received a vehicle injection of ultrapure DI water and served as the control group. These mice were observed until the endpoint at which their tumor volume was 1 cm^3. […]
# [3] = pH-dependent exatecan mesylate solubility in phosphate buffers (precipitate rating); format: physicochemical; set-up: key to Precipitate rating (Yes/No): Precipitate rating “Yes” means visible precipitate observed at 10× magnification; “No” means no visible precipitate observed at 10× magnification
# Protocol: Materials and methods A water-based formulation was made containing exatecan mesylate at a concentration of 10 mg/mL exatecan mesylate in water (Invitrogen UltraPure Distilled Water #10977-015). Phosphate buffers A and B were made by dissolving either 1M potassium phosphate monobasic (KH2PO4) for buffer A or 1M potassium phosphate dibasic ([…]) for buffer B in distilled water. Solutions with pH values ranging between 4.3 and 9.6 were prepared by mixing buffer A (pH 4.3) with buffer B (pH 9.6) at pre-determined percentages. A pH meter was used to confirm the pH of the resulting phosphate buffer solutions by dipping the electrode into the solution.
# To determine the pH solubility of the water-based formulation, 5 μL of the 10 mg/mL EXA in DI water was added to 100 μL 1M phosphate buffer at varying pH levels in a 96-well plate to produce a final concentration of […] EXA per milliliter. The solubility tests were conducted at pH 4.30 (0% buffer B), pH 5.6 (10% buffer B), pH 6.1 (20% buffer B), pH 6.4 (30% buffer B), pH 6.7 (40% buffer B), pH 7.0 (50% buffer B), pH 7.2 (60% buffer B), pH 7.5 (70% buffer B), pH 7.8 (80% buffer B), pH 8.2 (90% buffer B) and pH 9.6 (100% buffer B). Precipitation was assessed and images of the precipitate at the bottom of the 96-well plate were taken after 1 hour.
# [4] = tested on: PDVC57 cells (SCC tumors); assay: Titrated doses of a single injection of water-based exatecan mesylate formulation on tumor size (Example 5); format: in vivo, C57BL/6J mice
# Protocol: In a third experiment, 15 mice (i.e., five groups each containing three mice) with tumors ranging in size 59-80 mm^3, calculated as described above, were examined. PDVC57 cells were injected into 6-week-old female C57BL/6J mice. Treatment was administered seven days after tumor cell inoculation. Intratumoral injection performed using BD insulin syringe (30-gauge×8 mm needle; #328468). Mice were randomly assigned to one of five groups and were given a single intratumoral injection of either the vehicle (UltraPure Distilled Water, Invitrogen, #10977-015) or one of the following concentrations of the water-based formulation containing exatecan mesylate: 10 mg/mL, 5 mg/mL, 2.5 mg/mL or 1.25 mg/mL for a total treatment volume of 0.02 mL. All the mice were harvested 14 days post treatment for histological assessments.
# [5] = mouse, in vivo
# Protocol: (§2) SCC tumors were established by subcutaneous injection of 5 million PDVC57 cells into the right flank of syngeneic C57BL/6J mice. Seven days later, when tumors ranged from 4.5-5.5 mm in diameter, mice were evenly distributed among the treatment groups (N=5-10 mice/group, see below) and received intratumoral injections of vehicle (dH2O) or exatecan.
# (§3) A 0.5-mL 31 G syringe (BD Insulin Syringe #328468) was used to deliver 0.1 mg or 0.2 mg exatecan in a 20-microliter volume, or 0.4 mg in a 40-microliter volume (because of solubility limitations). Control groups received an equal volume of sterile dH2O. The needle was placed into the tumor and the appropriate volume was slowly injected (approximately over 5 sec). The needle was held in place for 10 seconds after the injection was complete, then slowly removed while maintaining finger pressure on the injection site.
# ID8-Luc tumor cells = assay: BNP-111 in vivo efficacy in ID8 ovarian cancer model (IVIS tumor burden); set-up: species or system C57Bl/6 mice; settings: 2.5 mpk i.p. once weekly x4; day 56
# Protocol: Luciferase expressing ID8-Luc tumor cells were washed twice in sterile PBS, resuspended in sterile PBS and a 1 ml 27 G syringe used to inject 1 million cells intraperitoneally (i.p.) into syngeneic female C57Bl/6 mice.
# [6] = Intratumoral injection of exatecan (Example 1): toxicity
# Protocol: as §2, §3
# [7] = Dissolution of exatecan mesylate in sterile dH2O (stock preparation); format: physicochemical
# Protocol: as §1
# [8] = tested on: SCC tumors (PDVC57 cells); assay: Intratumoral injection of exatecan in PDVC57 SCC tumors (Example 1, Experiments 1 and 2): tumor outcome; format: in vivo, C57BL/6J mice; settings: EXA 0.2 mg single intratumoral injection; of 6 mice harvested (4 not harvested)
# [9] = tested on: PDVC57 cells (SCC tumors); assay: Single intratumoral injection of water-based exatecan mesylate formulation in mouse model of SCC (Example 3); format: in vivo, C57BL/6J mice
# Protocol: Six-week old female C57BL/6J mice were used in this study.
# PDVC57 cells were developed in, and obtained from, the laboratory of Dr. Allan Balmain (Quintanilla, et al., Carcinogenesis 1991, 12 (10), 1875-1881). Mice were anesthetized with avertin and their flanks shaved. The mice were then given an intradermal injection with of 5 million PDVC57 cells in suspension in 100 μL PBS. A 1 cc syringe fitted with a 27 g needle was used for the intradermal injection.
# Seven days following tumor cell inoculation, the mice were given either a single intratumoral injection of 10 mg/mL exatecan mesylate in ultrapure distilled water (Invitrogen, Catalog #10977-015) or a vehicle injection using a BD insulin syringe (30-gauge×8 mm needle; #328468). The vehicle was invitrogen UltraPure Distilled Water #10977-015. The treatment volume was 0.02 mL.
# Mice were sedated. Calipers were used to measure tumor diameter. Tumor volume was calculated from micrometer measurements using the following formula: […]
# When tumors reached the endpoint, i.e., tumor volume of 1 cm^3, mice were euthanized by isoflurane inhalation and tumors dissected away from subcutaneous tissue. Isolated tumors were bisected along the longest axis, fixed in 10% neutral buffered fonnalin and submitted to Yale Research Pathology for embedding, sectioning, and H&E staining. Resulting slides were scanned using a Zeiss AxioObserver Z1 with TissueGnostics TissueFAXS software. Images were analyzed using Fiji software.
# In a first experiment, 20 mice with tumors ranging in size from 45-85 mm^3 were examined. The group size was 10. Ten of the mice were given a single injection of a water-based formulation containing exatecan mesylate (10 mg/mL), while the other 10 mice received a vehicle injection of ultrapure DI water and served as the control group. For each group (experimental group or control), half of the mice were harvested 16 days post-treatment for histological assessment, the other half were harvested 32 days post-treatment if they had discernible tumors or monitored until day 66 if no palpable tumors were observed.
# [10] = 10 mg/mL, 0.02 mL single injection
structure (smiles),measurement,setting,value
"CC[C@@]1(O)C(=O)OCc2c1cc1n(c2=O)Cc2c-1nc1cc(F)c(C)c3c1c2[C@@H](N)CC3 [EXA, Exatecan mesylate]",Mice whose tumor progressed to 1 cm,"[1]; 0.2 mg, the five mice not harvested on day 16",one of the remaining five
same,Efficacy of treatment (summary),[1]; 0.2-mg dose per animal,very effective
same,Tumor incidence,[1]; EXA 0.1 mg x2,57%
same,Tumor incidence (mice),[1]; EXA 0.1 mg x2,4 of 7
same,"Mice remaining (days post-treatment), no palpable tumor","[1]; EXA 0.1 mg x2, day 36",2 (day 36) -
same,Histology (N): mice with tumor,"[1]; EXA 0.1 mg x2, of 5 mice harvested (2 not harvested)",Tumor in 4
same,Tumor incidence,"[1]; EXA 0.2 mg single injection, N=10",20%
same,"Mice remaining (days post-treatment), no palpable tumor","[1]; EXA 0.2 mg single injection, day 53",4 (day 53) -
same,"Mice remaining (days post-treatment), no palpable tumor","[1]; EXA 0.2 mg single injection, day 53, listed as exatecan",four
same,"Mice remaining (days post-treatment), no palpable tumor","[1]; EXA 0.4 mg single injection, day 36",1 (day 36) -
same,Efficacy compared with single 0.2 mg dose,[1]; two doses of 0.1 mg per animal separated by 3 days,less effective
same,Mice with tumors that reached endpoint volume (1 cm^3),"[2]; 10 mg/mL, 0.02 mL single injection, through day 77",4 of 10
same,Mantel-Cox log rank test p (survival vs dH2O vehicle),"[2]; 77 days post-treatment, 10 mg/mL, 0.02 mL",< 0.0001
same,Cure,[2]; Day 77 post-treatment,60%
same,Mice remaining with no palpable tumor,[2]; Day 77 post-treatment,6 of the 10
same,Mice with a large tumor (clinical images),"[2]; day 22 post-treatment, 10 mg/mL, 0.02 mL",1 of 10
same,Time at which tumors reached endpoint volume,[2]; the 4 mice that reached 1 cm^3,34-52 days post-treatment
same,pH at which enhanced precipitation and decrease in solubility is shown,[3]; 1M phosphate buffer,≥ 7.12
same,Precipitate rating (Yes/No),"[3]; Control (distilled water), 0% buffer A, 0% buffer B, pH 7",No
same,Onset of precipitation after addition to phosphate buffer,[3]; EXA/DI water mixture added to phosphate buffer,generally immediate
same,Precipitate rating (Yes/No),"[3]; Sample 1: 100% buffer A, 0% buffer B, pH 4.3",No
same,Precipitate rating (Yes/No),"[3]; Sample 2: 90% buffer A, 10% buffer B, pH 5.6",No
same,Precipitate rating (Yes/No),"[3]; Sample 3: 80% buffer A, 20% buffer B, pH 6.1",No
same,Precipitate rating (Yes/No),"[3]; Sample 4: 70% buffer A, 30% buffer B, pH 6.4",No
same,Precipitate rating (Yes/No),"[3]; Sample 5: 60% buffer A, 40% buffer B, pH 6.7",Yes
same,Precipitate rating (Yes/No),"[3]; Sample 6: 50% buffer A, 50% buffer B, pH 7.0",Yes
same,Precipitate rating (Yes/No),"[3]; Sample 7: 40% buffer A, 60% buffer B, pH 7.2",Yes
same,Precipitate rating (Yes/No),"[3]; Sample 8: 30% buffer A, 70% buffer B, pH 7.5",Yes
same,Precipitate rating (Yes/No),"[3]; Sample 9: 20% buffer A, 80% buffer B, pH 7.8",Yes
same,Precipitate rating (Yes/No),"[3]; Sample 10: 10% buffer A, 90% buffer B, pH 8.2",Yes
same,Precipitate rating (Yes/No),"[3]; Sample 11: 0% buffer A, 100% buffer B, pH 9.6",Yes
same,Tumor size compared to vehicle,"[4]; 2.5 mg/mL, 0.02 mL, 14 days",almost complete reduction in tumor size
same,Tumor size compared to vehicle,"[4]; 5 mg/mL, 0.02 mL, 14 days",almost complete reduction in tumor size
same,Tumor size compared to 1.25 mg/mL and vehicle,"[4]; 10 mg/mL, 0.02 mL, 14 days",significantly reduced tumors
same,Tumor size compared to vehicle,"[4]; all doses administered (10, 5, 2.5, 1.25 mg/mL; 0.02 mL), 14 days post treatment",reduced tumor size
same,Tolerability compared with single 0.2 mg dose,[5],less well tolerated
same,Reduction of tumor burden (photon flux),ID8-Luc tumor cells,62.16%
same,Toxicity (summary),[6]; 0.4 mg per animal,lethality
same,Toxicity: number of mice in which lethal,"[6]; EXA 0.1 mg x2 (day 0 and day 3), of 9 mice",Lethal in 2 of
same,Toxicity: number of mice in which lethal,"[6]; EXA 0.4 mg single injection, of 8 mice",Lethal in 7 of
same,Dissolution in sterile dH2O,[7]; 10 mg/mL stock,warming to 60 °C plus sonication and vortexing were needed
same,Dissolution in sterile dH2O,[7]; at 5 mg/mL,dissolves immediately
same,Histology (N): mice with tumor,[8],Tumor in 2
same,"Mice remaining (day 66 post-treatment), no palpable tumor",[9]; [10],4 - no
same,Tumor incidence overall,[9]; [10],(20%)
same,Tumor incidence overall (mice),[9]; [10],2 of 10
same,Day 32 harvest for histology: tumor in,"[9]; 10 mg/mL, 0.02 mL single injection, 4 mice not harvested",1 of 1. 4
same,% of mice that eliminated their tumor,"[9]; 10 mg/mL, 0.02 mL single injection, assessed at day 16 and day 66",80%
same,Day 16 harvest for histology: tumor in,"[9]; 10 mg/mL, 0.02 mL single intratumoral injection",1 of 5
same,Histological assessment: mice with no discernible tumor,[9]; 5 mice per group,4 out of 5
same,Inflammation of surrounding tissue compared to vehicle-treated mice,"[9]; single dose, histology",decreased inflammation
same,Tissue damage,"[9]; single dose, histology",minimal tissue damage

# Reference: US20250161295A1, “EXATECAN FORMULATION” (Yale University, priority 2022, published 2025)
